For series [1], the target named is Translocator protein (Mus musculus) (UniProt P50637). Description: Inhibition of TSPO in mouse HT22 cells assessed as reduction in amyloid beta (1 to 42) (unknown origin) induced mitochondrial permeability transition pore formation by measuring increase in green to red fluorescence ratio at 5 uM pretreated for 10 mins followed by amyloid beta (1 to 42) stimulation and measured at 1 hr interval for 3 hrs by JC-1 dye based fluorescence assay relative to control. In kind it is cell-based. More on the design: scale not given: the % may be the effect or the level left.

A short description of series [2]: Cytotoxicity against mouse HT22 cells as cell viability at 5 uM after 24 hrs by MTT assay relative to control. The series is classed as cell-based, HT-22. To be noted: read-out: Activity. On the technique in general: Tetrazolium assays rely on reduction of a dye to a coloured formazan, in cell work by metabolically active cells.
The target of series [3] is Translocator protein (Mus musculus) (UniProt P50637). As to the kind of experiment: Inhibition of TSPO in mouse HT22 cells assessed as recovery of ATP production at 5 uM preincubated for 10 mins followed by amyloid beta (1 to 42) stimulation and measured after 7 hrs by luciferase based assay relative to control. The series is classed as cell-based. Further details: scale not given: the % may be the effect or the level left.

The structures appear in SMILES notation.

Sequence of Translocator protein (Mus musculus) (P50637 whole entry, looked up): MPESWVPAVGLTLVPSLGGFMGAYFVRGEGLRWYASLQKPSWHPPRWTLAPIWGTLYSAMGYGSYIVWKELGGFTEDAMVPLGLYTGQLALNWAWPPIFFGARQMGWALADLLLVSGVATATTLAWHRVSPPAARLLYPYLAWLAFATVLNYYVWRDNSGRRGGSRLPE

Regarding `Cc1noc(C)c1S(=O)(=O)NC(c1ccccc1)c1ccccc1`, the Activity in series [1] came to 0%.

On to `CN1C(=O)CN=C(c2ccc(Cl)cc2)c2cc(Cl)ccc21` [RO-54864], for which the viability at 24 h, 5 µM in series [2] was determined as 100%. Besides, the Activity in series [1] is 12%; in series [3] it was 9%.

Regarding `CCc1nn(CC(=O)Nc2ccc(OC)c(OC)c2)c(=O)c2cc3sccc3n12`, the viability at 24 h, 5 µM in series [2] came to 40%. In addition, the Activity in series [1] is 56%; in series [3], -17%.

Turning to `CCc1nnc(SCC(=O)N(C)c2ccccc2)c2cc3sc(Cl)cc3n12`, in series [2], the viability at 24 h, 5 µM was 78%. For the same molecule, the Activity in series [1] was determined as 61%; in series [3] it was 22%.

`C=CCN1C(=O)CN=C(c2ccc(C(C)(C)C)cc2)c2c1sc1c2CCCC1`: in series [1], the Activity is 14%.

For `COC(=O)CN1C(=O)C2CCCCC2Sc2ncccc21` (centres undefined), in series [1], the Activity was 0%.

For the molecule `C=CCN1C(=O)CN=C(c2ccccc2)c2c1sc(C)c2C`, the viability at 24 h, 5 µM in series [2] turned out to be 93%. Further, the values for the Activity in series [1] and in series [3] were 75% and -2%, respectively.

For the molecule `CCN(Cc1ccccc1)C(=O)CSc1nnc(C)n2c1cc1sccc12`, the viability at 24 h, 5 µM in series [2] was determined as 99%. The Activity in series [1] turned out to be 63%; in series [3] it was 8%.

Regarding `CCc1nnc(SCC(=O)N2CCN(c3ccccc3)CC2)c2cc3sc(Cl)cc3n12`, the viability at 24 h, 5 µM in series [2] is 99%. Moreover, the results for the Activity in series [1] and in series [3] were 50% and -2%, respectively.

With `COC(=O)C1CCc2ccccc2N1C(=O)c1ccc(OC)cc1` (centres undefined), in series [1], the Activity worked out at 38%.

Turning to `CCc1nnc(SCC(=O)Nc2ccccc2)c2cc3sccc3n12`, in series [2], the viability at 24 h, 5 µM is 91%. Moreover, the values for the Activity in series [1] and in series [3] were 48% and -3%, respectively.

With `COC(=O)CN(c1ccc(C(C)C)cc1)S(=O)(=O)c1ccc(C)cc1`, the viability at 24 h, 5 µM in series [2] stood at 92%. The values for the Activity in series [1] and in series [3] were 67% and -1%, respectively.

Consider `CCc1nnc(SCC(=O)Nc2ccc(OC)c(OC)c2)c2cc3sccc3n12`, for which the viability at 24 h, 5 µM in series [2] turned out to be 82%. Besides, the figures for the Activity in series [1] and in series [3] were 56% and 14%, respectively.

For the molecule `Cc1ccc(S(=O)(=O)Nc2ccc3c(c2)sc(=O)n3C)c(C)c1`, the Activity in series [1] came out at 4%.

Consider `Cc1ccc2c(c1)C(c1ccccc1)=NCC(=O)N2C`, for which the Activity in series [1] is 1%.

With `CNC(=O)CN(c1ccc(Br)cc1)S(=O)(=O)c1ccc(C)cc1`, the Activity in series [1] came out at 35%.

Turning to `CN1C(=O)CN=C(c2ccccc2)c2cc(Br)ccc21`, in series [1], the Activity was 0%.

As to `Cn1c(SCC(=O)NCc2ccccc2)nnc1-c1cc2ccccc2o1`, the Activity in series [1] turned out to be 19%.

`Cc1cc2c(cc3c(=O)n(CC(=O)N(C)c4ccccc4)nc(C)n32)s1`: the viability at 24 h, 5 µM in series [2] was 100%. The Activity in series [1] stood at 41%; in series [3], 17%.

With `CCN(C(=O)CCl)c1ncc(-c2ccc(OC)cc2)s1`, the Activity in series [1] turned out to be 0%.

As to `CCN(Cc1ccccc1)C(=O)Cn1nc(C)n2c(cc3sc(C)cc32)c1=O`, the viability at 24 h, 5 µM in series [2] was determined as 90%. Moreover, the values for the Activity in series [1] and in series [3] were 45% and 9%, respectively.

With `COc1cc(-c2nnc(SCc3c(F)cccc3Cl)o2)cc(OC)c1OC`, the viability at 24 h, 5 µM in series [2] is 94%. Also, the Activity in series [1] was 65%; in series [3], -3%.

On to `CCOC(=O)C(C)N1C(=O)CN=C(c2cccc(C)c2)c2c1sc1c2CCCC1` (centres undefined), for which the Activity in series [1] amounted to 0%.

`C=CCN1C(=O)CN=C(c2ccccc2C)c2cc(CC)sc21`: in series [1], the Activity came out at 0%.

Take `CCOC(=O)C1=C(C)N/C(=C/c2ccccc2OCc2ccccc2)C1=O`: the Activity in series [1] was found to be 22%.

As for `Cc1ccc(S(=O)(=O)NCc2cccnc2)c(C)c1`, the Activity in series [1] stood at 0%.

Consider `C=CCN1C(=O)CN=C(c2cccs2)c2c1sc1c2CCC1`, for which, in series [1], the Activity is 38%.

On to `CCOC(=O)C(C)N1C(=O)CN=C(c2ccc(OC)cc2)c2c1sc1c2CCCC1` (centres undefined), for which the Activity in series [1] came out at 24%.

Take `O=C(COc1ccc(Cl)cc1)ON=C(c1ccccc1)c1ccccc1`: the Activity in series [1] worked out at 0%.

With `CCCC(=O)n1nc(-c2ccco2)nc1S(=O)(=O)Cc1ccccc1`, the Activity in series [1] amounted to 0%.
